Paper PMC6572573, “Development of a Ternary Solid Dispersion Formulation of LW6 to Improve the In Vivo Activity as a BCRP Inhibitor: Preparation and In Vitro/In Vivo Characterization” (Pharmaceutics, 2019)

Experiments:
[1] = Apparent aqueous solubility of LW6 formulations (HPLC); type: physicochemical; conditions: water
Protocol: For the selection of optimal carriers, SDs of LW6 were prepared with various hydrophilic polymers at a drug–carrier ratio of 1:5 using the solvent evaporation method. Briefly, LW6 was dissolved in dichloromethane by sonication for 10 min for complete solubilization. Each polymeric carrier was dissolved in dichloromethane and added to the drug solution. After vigorous mixing, all the solvents were eliminated under vacuum at room temperature. The resulting product was milled and sieved through an 80-mesh screen. The corresponding physical mixtures (PMs) were also prepared by mixing LW6 and each carrier with a mortar and pestle. The carrier that enhanced the LW6 solubility to the greatest extent was selected for preparing the ternary SD formulations of LW6. The effect of surfactants on the solubility of LW6 was also determined using a 10% aqueous solution of various surfactants.
Each formulation equivalent to 1 mg of LW6 was dissolved in 1 mL of distilled water and stirred at 300 rpm for 48 h at room temperature. […] The drug concentration in each filtrate was measured by HPLC assay.
HPLC assay for LW6: The concentrations of LW6 from in vitro samples were determined using a HPLC system (Perkin Elmer series 200, Waltham, MA, USA) consisting of a UV detector, a pump, and an automatic injector. […]

[2] = test system: breast cancer resistance protein (BCRP); set-up: method as in PMID 27520631; conditions: previous reports ref 4; cited from earlier work
BCRP = target: T1, BCRP (Rattus norvegicus, UniProt Q80W57); test: Oral pharmacokinetics of topotecan (BCRP substrate) in rats with/without co-administered LW6 formulations; type: in vivo
T1 construct: from tissue; host or cells: living male Sprague-Dawley rats (intestine)
T1 sequence (Q80W57 1-657): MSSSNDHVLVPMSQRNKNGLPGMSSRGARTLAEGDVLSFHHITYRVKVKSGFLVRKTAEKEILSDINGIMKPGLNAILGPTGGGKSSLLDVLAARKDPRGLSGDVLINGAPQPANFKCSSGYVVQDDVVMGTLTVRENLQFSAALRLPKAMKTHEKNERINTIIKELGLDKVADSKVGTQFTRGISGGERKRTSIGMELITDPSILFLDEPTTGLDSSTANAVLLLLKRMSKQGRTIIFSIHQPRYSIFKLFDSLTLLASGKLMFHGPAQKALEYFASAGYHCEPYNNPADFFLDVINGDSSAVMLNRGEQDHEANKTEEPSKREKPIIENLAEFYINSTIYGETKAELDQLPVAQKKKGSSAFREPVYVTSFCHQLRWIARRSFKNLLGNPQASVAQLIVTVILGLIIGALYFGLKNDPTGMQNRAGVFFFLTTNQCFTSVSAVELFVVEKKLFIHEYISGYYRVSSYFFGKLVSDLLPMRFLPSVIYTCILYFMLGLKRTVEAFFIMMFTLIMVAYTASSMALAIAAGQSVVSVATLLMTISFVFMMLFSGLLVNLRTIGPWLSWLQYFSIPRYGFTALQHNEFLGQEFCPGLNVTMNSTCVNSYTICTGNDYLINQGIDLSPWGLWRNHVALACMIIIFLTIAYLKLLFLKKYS
Protocol: The pharmacokinetic profiles of topotecan, which is a representative BCRP substrate, were examined in rats with/without the co-administration of LW6 in different formulations. Animal studies were carried out in accordance with the “Guiding Principles in the Use of Animals in Toxicology” adopted by the Society of Toxicology (USA), and the study protocol was approved by the review committee of Dongguk University (IACUC-2017-016-2). Male Sprague–Dawley rats (260–280 g) were provided by Orient bio Co., Ltd. (Seongnam, Korea). All the rats were given free access to tap water and a normal standard chow diet (Superfeed Company, Wonju, Korea). The rats were fasted for 18 h before the experiments, and divided into three groups (n = 3 per group). The pure drug or SD (equivalent to 20 mg/kg of LW6) was suspended in 0.5% aqueous methylcellulose with 5% polyethylene glycol (PEG) and topotecan (10 mg/kg) was dissolved in saline. Each formulation was given orally to the three groups of rats (group 1, topotecan only; group 2, topotecan + pure LW6; group 3, topotecan + SD of LW6). Blood samples were obtained from the femoral artery at the predetermined time points. The blood samples were centrifuged at 13,000 rpm for 5 min, and the obtained plasma samples were frozen at −20 °C until analyzed by liquid chromatography-tandem mass spectrometry (LC-MS/MS).
LC-MS/MS assay for topotecan: The concentration of topotecan in rat plasma was determined using LC-MS/MS assay as reported by Ye et al.. Briefly, 100 µL of plasma, 20 µL of the internal standard camptothecin (1 µg/mL), and 180 µL of methanol were mixed vigorously, and then centrifuged at 13,000 rpm for 5 min. After centrifugation, 240 µL of the supernatant was collected and dried under vacuum. After complete drying, the residue was re-dispersed in methanol and analyzed by LC-MS/MS. Chromatographic separation was done with a C18 column (4.6 × 100 mm, 2.6 μm; Phenomenex, Torrance, CA, USA) using a mobile phase consisting of acetonitrile and 0.1% formic acid (80:20, v/v) at a flow rate of 0.4 mL/min. Mass spectrometric detection was done using the AB Sciex API 4000 triple quadrupole mass spectrometer (AB Sciex, Framingham, MA, USA). The electrospray ionization (ESI) source was set in positive ionization mode. The precursor/product ion pair (m/z) was 422.2/377.1 for topotecan and 349.1/305.2 for camptothecin (IS). The calibration curve was prepared at concentrations of 1 to 1000 ng/mL with a good linearity of r^2 value greater than 0.99.
Based on the noncompartmental analysis, the area under the plasma concentration–time curve (AUC) was calculated using the linear trapezoidal method. The peak plasma concentration (Cmax) and the time to reach the peak plasma concentration (Tmax) were values recorded from the experimental data.

[3] = In vitro drug release (dissolution) studies; type: physicochemical; conditions: 37 °C, 100 rpm
Protocol: The drug release profiles of each formulation were examined at different pH conditions (1.2, 4.0, and 6.8). Each formulation (drug amount equivalent to 1 mg of LW6) was dispersed in different release media (10 mL) and stirred at 100 rpm, 37 °C. At predetermined time points (10, 20, 30, 45, and 60 min), the samples were collected and filtered through a 0.45-µm pore-sized cellulose syringe filters. The drug concentration in each filtrate was determined by HPLC assay.
HPLC assay for LW6: The concentrations of LW6 from in vitro samples were determined using a HPLC system (Perkin Elmer series 200, Waltham, MA, USA) consisting of a UV detector, a pump, and an automatic injector. A reversed-phase C18 column (Gemini C18, 4.6 × 150 mm, 5 µm; Phenomenex, Torrance, CA, USA) was eluted with a mobile phase consisting of acetonitrile and 0.1% formic acid (80:20, v/v). The flow rate was 1.0 mL/min at 30 °C, and the UV wavelength was set at 254 nm. Valsartan was used as an internal standard, and the calibration curve of LW6 was linear (r^2 = 0.99) within the concentration range of 0.05 to 100 µg/mL.

[4] = male, Sprague-Dawley, rat, plasma, oral topotecan 10 mg/kg, with or without LW6 20 mg/kg (pure or F8-SD), mean ± SD (n = 3)

| Compound | Aqueous solubility of pure LW6 (in words) [1] | BCRP inhibitory potency compared with typical BCRP inhibitor [2] | Increase in oral (systemic) exposure of topotecan by coadministration (BCRP; oral topotecan 10 mg/kg + LW6 20 mg/kg equivalent, versus topotecan only) | Drug release within 20 min ([3]; acidic to neutral pH range (pH 1.2, 4.0, 6.8)) | Drug release within 1 h ([3]; water) | AUC (BCRP; [4]) | Cmax (BCRP; [4]) | Tmax (BCRP; [4]) | half-life (BCRP; male, Sprague-Dawley, rat, plasma, oral topotecan 10 mg/kg, with or without LW6 20 mg/kg (pure or F8-SD), mean ± SD (n = 3), read-out: T1/2 of topotecan (converted)) |
| --- | --- | --- | --- | --- | --- | --- | --- | --- | --- |
| COC(=O)c1ccc(O)c(NC(=O)COc2ccc(C34CC5CC(CC(C5)C3)C4)cc2)c1 [LW6, 3-[2-(4-adamantan-1-yl-phenoxy)-acetylamino]-4-hydroxy-benzoic acid methyl ester] | practically insoluble | more potent than Kol43 | approximately threefold | negligible | minimal | – | – | – | – |
| CC[C@@]1(O)C(=O)OCc2c1cc1n(c2=O)Cc2cc3c(CN(C)C)c(O)ccc3nc2-1 [Topotecan, topotecan] | – | – | – | – | – | 0.204 ± 0.0111 µg·h/mL | 0.0313 ± 0.0071 µg/mL | 0.4 ± 0.1 h | 2 ± 0.4 h |
